{"source": "patent US7179821B2", "about": "“Method of treating of demyelinating diseases or conditions” (Aventis Pharmaceuticals Inc., priority 2001, dated 2007)", "key": {"acute bladder irritation": {"system": "acute bladder irritation", "assay": "Bladder irritation in the rat (protamine sulfate/KCl model), continuous open cystometry", "assay_type": "in vivo", "details": "intravenous, cumulative dose-response, urethane anesthetized rats, P=0.0019", "description": "Fraser et al combined protamine sulfate treatment, thought to breakdown urothelial umbrella cell barrier function, and physiologic urine concentrations of KCl (500 mM). The effects of intravenous HP-184 were compared to vehicle alone (n=4/group) in a cumulative dose-response study in urethane anesthetized rats with acute bladder irritation. Continuous open cystometry, which measures the filling and emptying of the bladder during continuous infusion, was utilized to determine the effect of the drug on bladder irritation. When the bladder is irritated, it contracts more frequently during the same filling rate due to sensitization of C-fiber afferent nerves. FIG. 8 illustrates the dose-dependent decrease in bladder contraction frequency from pre-administration irritation values compared to the effects of vehicle alone."}, "[1]": {"system": "mechanical hyperalgesia after nerve ligation", "assay": "Neuropathic pain model, spinal nerve constriction, von Frey paw withdrawal threshold", "assay_type": "in vivo, rat", "details": "20 mg/kg po, tested 3 hours after dosing", "description": "Adult male Sprague-Dawley rats received unilateral constriction of the L6 nerve to produce chronic nerve injury. Following recovery from surgery (3–7 days post operative) animals were tested for paw withdrawal threshold to mechanical stimuli applied to the affected paw. This was determined by the application of calibrated von Frey monofilaments to the plantar surface of each hindpaw. Only animals with a 50% decrease in withdrawal threshold in the ligated paw were employed in the study, and were randomly assigned to one of 6 groups: three groups receiving one of three doses of HP 184 (0.3, 3 and 20 mg/kg, po), a fourth group receiving a single dose of another compound referred to MDL (10 mg/kg, ip), a fifth group receiving gabapentin (90 mg/kg, sc), and a sixth group receiving vehicle only. Behavioral testing occurred 45 minutes following the gabapentin (90 mg/kg, sc), and 3 hours following the HP 184, MDL, and vehicle. A difference score between the ligated and non-ligated paw withdrawal thresholds is calculated for each animal, and these differences were subjected to ANOVA with group as the main factor. […] Analysis was between/within repeated measures ANOVA. […]"}, "[2]": {"system": "moderate chronic (35 days post-injury) spinal cord crush", "assay": "Long standing moderate spinal cord crush (35 days), OFT score", "assay_type": "in vivo, rat", "details": "3 mg/kg po, thirty-five days after moderate injury, single dose then daily for 4 more days"}, "NO production": {"system": "NO production", "assay": "LPS-induced NO production in mice, plasma nitrate by Griess assay", "assay_type": "in vivo, mouse", "details": "30 mg/kg ip 30 minutes prior to LPS 3 mg/kg ip, plasma 5 hours after LPS", "description": "Mice were injected with 30 mg/kg HP 184 (ip) 30 minutes prior to LPS (3 mg/kg, ip). Mice were sacrificed 5 hours after LPS injection, and plasma collected. Nitrate levels were determined by the Griess assay. Groups were composed of 9–10 mice each."}, "mouse pMCAO stroke model": {"system": "mouse pMCAO stroke model", "assay": "Mouse pMCAO stroke model, infarct volume", "assay_type": "in vivo", "details": "−60 min (one hour prior to occlusion), infarct volume 24 hours later, vs vehicle treated mice", "description": "Methods: The experimental procedure was based on the method of Bachauβ et al (1992). Male CD-1 mice weighing 35–40 g were anaesthetized with chloral hydrate (400 mg/kg). Under an operating microscope, a 3 mm vertical skin incision was made 2 mm behind the right orbit. The temporal muscle was deflected and a small craniotomy carried out to expose the dura. The dura was incised and deflected and the distal part of the right […] exposed. The artery was occluded upstream to the main bifurcation by bipolar electroagulation with fine forceps. Infarct volume was measured 24 hours later using 2% triphenyltetrazolium chloride solution. In this experimental paradigm, HP 184 was orally administered to non-fasted mice (10 per group) one hour prior to occlusion. Infarct volume reduction was based on comparison to 1% acetic acid, vehicle, treated mice."}, "[3]": {"details": "micromolar brain concentrations one hour after ip administration of 30 mg/kg in rats; cited from earlier work"}, "[4]": {"system": "RuR-induced flaccid paralysis", "assay": "Antagonism of ruthenium red (RuR)-induced flaccid paralysis, flagpole test", "assay_type": "in vivo, mouse", "description": "Method and Results: Groups of 4–5 mice (CD-1; Charles River; 25–35 grams) were separately but simultaneously injected ip with ruthenium red and vehicle (1% glacial acetic acid), ruthenium red and 4-AP, or ruthenium red and HP 184. The compound known as “8183” was also tested in this paradigm. Starting at 15 minutes after injections, mice were placed near a “flagpole” apparatus and their ability to support their own body weight (ie, to hold on to the flagpole and not fall) was recorded. Results were recorded as the number of mice that could support their own body weight versus the total number of mice tested. All experiments were performed between 2PM and 4:30PM."}, "[5]": {"details": "10 mg/kg ip with RuR 30 mg/kg ip, 15 min"}, "[6]": {"details": "10 mg/kg ip with RuR 30 mg/kg ip, 30 min"}, "[7]": {"details": "10 mg/kg ip with RuR 30 mg/kg ip, 45 min"}, "[8]": {"details": "30 mg/kg ip with RuR 30 mg/kg ip, 15 min"}, "[9]": {"details": "30 mg/kg ip with RuR 30 mg/kg ip, 30 min"}, "[10]": {"details": "30 mg/kg ip with RuR 30 mg/kg ip, 45 min"}}, "note": "Several values for one entry are separate records, joined by “and”; a condition that tells them apart may be missing. Equal entries are not always repeated.", "data": [{"compound": "CCCN(c1ccncc1F)n1cc(C)c2ccccc21", "note": "[HP184, N-(3-fluoro-4-pyridinyl)-N-propyl-3-methyl-1H-indole-1-amine]", "values": [{"measurement": "bladder contraction frequency in irritated bladders, FIG. 8", "setting": "acute bladder irritation", "result": "significantly decreased bladder contraction frequency in irritated bladders in a dose-dependent fashion"}, {"measurement": "mechanical hyperalgesia, difference of ligated minus normal paw withdrawal threshold, FIG. 10", "setting": "[1]", "result": "dose-response attentuation of L5 ligation mechanical hyperlagesia"}, {"measurement": "motor recovery, Open Field Walking Test", "setting": "[2]", "result": "improves motor recovery after a single dose"}, {"measurement": "NO production (plasma nitrate), FIG. 9", "setting": "NO production", "result": "inhibits NO production"}, {"measurement": "% infarct volume reduction mean sem", "setting": "mouse pMCAO stroke model; 1 mg/kg po", "result": "21 ± 3", "unit": "%"}, {"measurement": "% infarct volume reduction mean sem", "setting": "mouse pMCAO stroke model; 10 mg/kg po", "result": "40 ± 2.5 % and 32 ± 11 %"}, {"measurement": "tolerability", "setting": "[3]", "result": "very well-tolerated"}, {"measurement": "% of mice that could support their own body weight", "setting": "[4]; [5]", "result": "(93.3%)"}, {"measurement": "number of mice that could support their own body weight versus total tested", "setting": "[4]; [5]", "result": "14 out of 15"}, {"measurement": "% of mice that could support their own body weight", "setting": "[4]; [6]", "result": "(80%)"}, {"measurement": "number of mice that could support their own body weight versus total tested", "setting": "[4]; [6]", "result": "12 out of 15"}, {"measurement": "% of mice that could support their own body weight", "setting": "[4]; [7]", "result": "(73.3%)"}, {"measurement": "number of mice that could support their own body weight versus total tested", "setting": "[4]; [7]", "result": "11 out of 15"}, {"measurement": "% of mice that could support their own body weight", "setting": "[4]; [8]", "result": "(100%)"}, {"measurement": "number of mice that could support their own body weight versus total tested", "setting": "[4]; [8]", "result": "15 out of 15"}, {"measurement": "% of mice that could support their own body weight", "setting": "[4]; [9]", "result": "(100%)"}, {"measurement": "number of mice that could support their own body weight versus total tested", "setting": "[4]; [9]", "result": "15 out of 15"}, {"measurement": "% of mice that could support their own body weight", "setting": "[4]; [10]", "result": "(100%)"}, {"measurement": "number of mice that could support their own body weight versus total tested", "setting": "[4]; [10]", "result": "15 out of 15"}, {"measurement": "antagonism of the flaccid paralysis induced by ip RuR (conclusion)", "setting": "[4]; ip, doses of Table 3", "result": "can antagonize the flaccid paralysis"}]}]}
